Experimental data from patent US20240150321A1, “PYRAZOLYLSULFONAMIDE COMPOUNDS AND THEIR USE IN THERAPY” (HOTSPOT THERAPEUTICS, INC., priority 2022, published 2024).

Assays:
[1] = biological target: Avi-tagged FL MALT-1 (Homo sapiens (Human), UniProt Q9UDY8); assay: MALT-1 Fluorogenic Peptide Cleavage Assay (MALT1 inhibition assay); type: biochemical; settings: Ac-LRSR-AMC peptide substrate, 30 min pre-incubation, 90 min reaction at room temperature
Method in brief: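 Full-length Avi-tagged human MALT-1 (40 nM working stock) pre-incubated 30 min at RT with compound in 25 mM HEPES pH 6.89, 660 mM sodium citrate, 1 mM TCEP, […], 0.05% CHAPS, 2% DMSO. Ac-LRSR-AMC added at Km (50 μM working stock) or 10×Km (280 μM working stock); 90 min at RT, AMC fluorescence (ex 342/em 441 nm), IC50 from % inhibition curves.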

[2] = system: NF-kB reporter in Jurkat cells; assay: NF-kB reporter assay in Jurkat cells stimulated with aCD3/aCD28/PMA; type: cell-based; settings: Homo sapiens; Jurkat cells, 1 hr compound pre-incubation, aCD3/aCD28/PMA stimulation 4 hr, One-Glo readout; read-out: NF-kB Reporter Assay IC50
Method in brief: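 Jurkat cells (25,000/well, serum-free RPMI) were pre-incubated 1 h at 37° C with serially diluted compound, then stimulated 4 h with aCD3/aCD28/PMA at final […]. NF-kB reporter activity was read by One-Glo luminescence; IC50 values reported.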

Sequence of Avi-tagged FL MALT-1 (Q9UDY8 whole entry): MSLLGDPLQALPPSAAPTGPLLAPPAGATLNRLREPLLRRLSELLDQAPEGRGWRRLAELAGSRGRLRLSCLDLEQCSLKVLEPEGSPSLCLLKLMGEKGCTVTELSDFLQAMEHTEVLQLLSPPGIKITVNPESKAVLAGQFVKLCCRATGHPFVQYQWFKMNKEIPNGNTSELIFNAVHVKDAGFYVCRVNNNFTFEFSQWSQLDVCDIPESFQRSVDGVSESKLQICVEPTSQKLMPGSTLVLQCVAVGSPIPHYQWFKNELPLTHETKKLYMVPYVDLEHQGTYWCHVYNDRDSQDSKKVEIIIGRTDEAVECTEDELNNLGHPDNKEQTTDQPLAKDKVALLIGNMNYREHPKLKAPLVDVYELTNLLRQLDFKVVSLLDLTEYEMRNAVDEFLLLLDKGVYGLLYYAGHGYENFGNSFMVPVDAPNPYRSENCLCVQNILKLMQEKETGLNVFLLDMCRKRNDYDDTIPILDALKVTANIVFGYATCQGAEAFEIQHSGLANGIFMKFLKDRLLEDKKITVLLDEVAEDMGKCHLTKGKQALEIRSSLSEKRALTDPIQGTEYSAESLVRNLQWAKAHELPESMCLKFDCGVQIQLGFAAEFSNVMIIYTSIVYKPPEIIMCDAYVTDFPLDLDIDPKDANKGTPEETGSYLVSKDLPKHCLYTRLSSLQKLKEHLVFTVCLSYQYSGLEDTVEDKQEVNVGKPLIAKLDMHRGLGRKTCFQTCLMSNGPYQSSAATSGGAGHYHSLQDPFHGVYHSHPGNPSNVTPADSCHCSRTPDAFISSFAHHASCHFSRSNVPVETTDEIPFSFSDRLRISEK

| IC50 [1] | IC50 [2] | SMILES |
| --- | --- | --- |
| 400 to 1000 nM | < 400 nM | COc1ccc2cnn(C)c2c1NS(=O)(=O)c1cnn(-c2cc(C3(F)CC(C)C3)ccn2)c1 (stereo not shown) [Compound I-413, 1-(4-(1-fluoro-3-methylcyclobutyl)pyridin-2-yl)-N-(6-methoxy-1-methyl-1H-indazol-7-yl)-1H-pyrazole-4-sulfonamide] |
| > 2500 nM | < 400 nM | COc1ncc2cnn(C)c2c1NS(=O)(=O)c1cnn(-c2cc(N3CC[C@@H](C)C3)ccn2)c1 [Compound I-420] |
| > 2500 nM | < 400 nM | Cn1ncc2cccc(NS(=O)(=O)c3cnn(-c4cc(C5(O)CCCC5)ccn4)c3)c21 [Compound I-247, 1-[4-(1-hydroxycyclopentyl)pyridin-2-yl]-N-(1-methylindazol-7-yl) pyrazole-4-sulfonamide] |
| > 2500 nM | < 400 nM | CC[C@](C)(OC)c1ccnc(-n2cc(S(=O)(=O)Nc3cccc4cnn(C)c34)cn2)c1 (stereo in doubt) [Compound I-313, 1-(4-(2-methoxybutan-2-yl)pyridin-2-yl)-N-(1-methyl-1H-indazol-7-yl)-1H-pyrazole-4-sulfonamide] |

The next lines start with the compound.

| SMILES | IC50 [1] | IC50 [2] |
| --- | --- | --- |
| Cn1ncc2cccc(NS(=O)(=O)c3cnn(-c4cc(Cl)ccn4)c3)c21 [Compound I-86, 1-(4-Chloropyridin-2-yl)-N-(1-Methyl-1H-Indazol-7-yl)-1H-Pyrazole-4-Sulfonamide] | > 2500 nM | < 400 nM |
| Cn1ncc2cncc(NS(=O)(=O)c3cnn(-c4cc(C(C)(F)F)ccn4)c3)c21 [Compound I-120, 1-(4-(1,1-Difluoroethyl)Pyridin-2-yl)-N-(1-Methyl-1H-Pyrazolo[4,3-C]Pyridin-7-yl)-1H-Pyrazole-4-Sulfonamide] | > 2500 nM | > 2500 nM |
| O=S(=O)(Nc1cccc2cnn(C(F)F)c12)c1cnn(-c2cc(Cl)ccn2)c1 [Compound I-110, 1-(4-chloropyridin-2-yl)-N-[1-(difluoromethyl)indazol-7-yl]pyrazole-4-sulfonamide] | > 2500 nM | > 2500 nM |
| Cn1ncc2cccc(NS(=O)(=O)c3cnn(-c4cc(C5CCOCC5)ccn4)c3)c21 [Compound I-123, N-(1-methyl-1H-indazol-7-yl)-1-(4-(tetrahydro-2H-pyran-4-yl)pyridin-2-yl)-1H-pyrazole-4-sulfonamide] | > 2500 nM | < 400 nM |
